Data from ChEMBL document CHEMBL1137272, “Discovery and synthesis of tetrahydroindolone derived semicarbazones as selective Kv1.5 blockers” (Bioorg Med Chem Lett, 2006).
Active and inactive are the calls of the source. The calls are words filed in the database; no cut-off is given here.

Key:
[1] = molecular target: T1, Potassium voltage-gated channel subfamily A member 5 (Homo sapiens, UniProt P22460); assay: Inhibition of Kv1.5 expressed in LTK- cells by whole cell patch clamp assay; format: functional, cell-based
T1 sequence (P22460 whole entry, the tested form may be a part): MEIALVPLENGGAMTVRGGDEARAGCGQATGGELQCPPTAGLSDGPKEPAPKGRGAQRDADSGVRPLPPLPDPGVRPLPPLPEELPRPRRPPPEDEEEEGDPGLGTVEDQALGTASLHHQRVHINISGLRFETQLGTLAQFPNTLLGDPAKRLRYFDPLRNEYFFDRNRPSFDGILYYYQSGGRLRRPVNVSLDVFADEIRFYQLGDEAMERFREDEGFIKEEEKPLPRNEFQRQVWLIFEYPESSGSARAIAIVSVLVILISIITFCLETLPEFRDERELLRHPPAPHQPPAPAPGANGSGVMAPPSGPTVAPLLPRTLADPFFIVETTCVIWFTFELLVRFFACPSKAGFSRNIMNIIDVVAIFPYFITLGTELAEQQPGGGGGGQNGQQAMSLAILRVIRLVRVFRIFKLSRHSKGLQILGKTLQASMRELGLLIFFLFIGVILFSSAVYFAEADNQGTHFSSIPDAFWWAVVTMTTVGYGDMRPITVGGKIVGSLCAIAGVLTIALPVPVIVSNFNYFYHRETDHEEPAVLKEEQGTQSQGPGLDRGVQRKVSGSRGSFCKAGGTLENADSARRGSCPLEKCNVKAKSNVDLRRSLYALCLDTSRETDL

Sus scrofa [2] = assay: Prolonged ventricular refractory period in pigs after 15 minute iv infusion at 30mg/kg; format: functional, organism-based; details: Cardiac ventricle
[3] = molecular target: T1, Potassium voltage-gated channel subfamily A member 5; assay: Inhibition of Kv1.5 expressed in LTK- cells by whole cell patch clamp assay at 1uM; format: functional, cell-based
Sus scrofa [4] = assay: Prolonged right atrial refractory period in pigs after 15 minute iv infusion at 30mg/kg; format: functional, Cardiac atrium
[5] = molecular target: Voltage-gated L-type calcium channel (Homo sapiens, UniProt Q13936+Q13698+Q01668+O60840); assay: Inhibition of L-type calcium channel by FLIPR assay; format: functional
Sus scrofa [6] = assay: Prolonged ventricular refractory period in pigs after 15 minute iv infusion at 10mg/kg; format: functional, organism-based; details: Cardiac ventricle
Sus scrofa [7] = assay: Prolonged right atrial refractory period in pigs after 15 minute iv infusion at 10mg/kg; format: functional, Cardiac atrium

| SMILES | inhibition [3] | further results |
| --- | --- | --- |
| CCc1c2c(n(C)c1CC)CCC/C2=N\N(C)C(=O)Nc1ccc(Cl)cc1 | 90% | – |
| CCc1c2c(n(C)c1CC)CCC/C2=N\N(C)C(=O)Nc1ccc(C(C)=O)cc1 | 90% | IC50 [1]: 370 nM |
| CCc1[nH]c2c(c1CC)/C(=N/NC(=O)Nc1ccccc1)CCC2 | 56% | – |
| O=C(N/N=C1\CCCC2=C1C1CCCCC1N2)Nc1ccccc1 (stereo not given) | 20% | – |
| CCc1c(C)[nH]c2c1/C(=N/N(C)C(=O)Nc1ccc(C(C)=O)cc1)CCC2 | 86% | – |
| CCc1c(C)[nH]c2c1/C(=N/NC(=S)Nc1cccc(C)c1)CCC2 | 64% | – |
| CCc1c(C)[nH]c2c1/C(=N/NC(=S)Nc1cccc(C(F)(F)F)c1)CCC2 | 91% | IC50 [1]: 200 nM |
| CCc1c(C)[nH]c2c1/C(=N/NC(=S)Nc1ccc(C(F)(F)F)cc1)CCC2 | 52% | – |
| CCc1c2c(n(C)c1CC)CCC/C2=N\N(C)C(=O)Nc1ccccc1 | 84% | – |
| CCc1[nH]c2c(c1CC)/C(=N/NC(=O)Nc1cccc(SC)c1)CCC2 | 67% | – |
| CCc1c(C)[nH]c2c1/C(=N/N(C)C(=O)Nc1ccc(SC)cc1)CCC2 | 78% | – |
| CCc1c(C)[nH]c2c1/C(=N/NC(=O)Nc1ccccc1)CCC2 | 85% | IC50 [1]: 130 nM; IC50 [5]: > 30000 nM; Prolonged VRP (Sus scrofa [6]): inactive; Prolonged ARP (Sus scrofa [7]): 28% |
| CCc1c(C)[nH]c2c1/C(=N/N(C)C(=O)Nc1ccccc1)CCC2 | 65% | – |
| CCc1c(C)[nH]c2c1/C(=N/N(C)C(=O)Nc1cccc(Cl)c1)CCC2 | 89% | – |
| CCc1c(C)[nH]c2c1/C(=N/NC(=S)Nc1cccc(Cl)c1)CCC2 | 78% | – |
| CCc1[nH]c2c(c1CC)/C(=N/NC(=O)Nc1ccc(OC)cc1)CCC2 | 85% | – |
| O=C(N/N=C1\CCCc2[nH]ccc21)Nc1ccccc1 | inactive | – |
| CCc1c(C)[nH]c2c1/C(=N/NC(=O)Nc1cccc(C3CCCN3)c1)CCC2 (stereo not given) | 60% | IC50 [1]: 750 nM |

Further lines, with some results ahead:

| inhibition [3] | SMILES | further results |
| --- | --- | --- |
| 93% | CCc1c(C)[nH]c2c1/C(=N/N(C)C(=O)Nc1ccc(Cl)cc1)CCC2 | IC50 [1]: 130 nM; Prolonged VRP (Sus scrofa [2]): inactive; Prolonged ARP (Sus scrofa [4]): 18% |
| inactive | Cc1[nH]c2c(c1C(C)C)/C(=N/NC(=O)Nc1ccc(Cl)cc1)CCC2 | – |
| 60% | CCc1[nH]c2c(c1CC)/C(=N/NC(=O)Nc1ccc(Cl)cc1)CCC2 | – |
| 63% | Cc1[nH]c2c(c1C)/C(=N/NC(=O)Nc1ccc(C(F)(F)F)cc1)CCC2 | – |
| 65% | CCc1c(C)[nH]c2c1/C(=N/NC(=O)Nc1ccc(Cl)cc1)CCC2 | IC50 [1]: 440 nM |
| 28% | O=C(N/N=C1\CCCc2[nH]ccc21)Nc1ccc(Cl)cc1 | IC50 [1]: 5600 nM |
| 67% | Cc1[nH]c2c(c1C)/C(=N/NC(=O)Nc1ccc(Cl)cc1)CCC2 | IC50 [1]: 370 nM |
| inactive | Cc1[nH]c2c(c1C(C)C)/C(=N/NC(=O)Nc1ccccc1)CCC2 | – |
| 71% | CCc1c(C)[nH]c2c1/C(=N/NC(=S)Nc1ccc(Cl)cc1)CCC2 | – |
| 80% | CCc1c(C)[nH]c2c1/C(=N/NC(=O)Nc1ccc(SC)cc1)CCC2 | IC50 [1]: 280 nM |
| 50% | CCc1c(C)[nH]c2c1/C(=N/NC(=O)Nc1ccc(C)cc1)CCC2 | – |
| 56% | CCc1[nH]c2c(c1CC)/C(=N/NC(=O)Nc1ccc(SC)cc1)CCC2 | – |
| 37% | Cc1[nH]c2c(c1C)/C(=N/NC(=O)Nc1ccccc1)CCC2 | – |
